Measurements taken from patent US6593340B1, “Pharmaceutical compositions containing N-propargylphentermine and related analogs to treat neurodegeneration and/or depression” (CV Technologies, Inc., priority 2000, dated 2003).
Like-named read-outs stand apart in the source and are kept apart here.

How the values were obtained:
[1] = system: serotonin (5-HT) uptake into rat striatal prisms; experiment: Inhibition of serotonin uptake in vitro; type: cell-based; parameters: dose or concentration left out as unconfirmed
Description: Animals were killed by decapitation and the hippocampus or striatum were removed and placed in ice cold incubation medium. […] 0.8 ml of ice cold prism of suspension per test tube was used. Each test tube was pre-incubated for 5 minutes at 37° C. At this time each test tube was placed on ice and the appropriate drug solution or control was added. This was rapidly followed by the addition of the radiolabled amine (titrated noradrenaline or serotonin, 0.01 μM, specific activity about 13.5 Ci/mmol). The mixture was incubated for 10 minutes at 37° C. The incubations were then filtered and washed using a cell harvester and the radioactivity retained on the filters was measured using a scintillation counter. The percent inhibition of amine uptake compared to controls containing no drug was calculated. […] The effect of viloxaine hydrochloride on the transport of noradenaline, dopamine, 5-hydroxytryptamine and gamma-amino-butyric acid in rat brain tissue.

[2] = system: rat brain and liver monoamine oxidase-B; experiment: Monoamine oxidase-B-inhibiting activity ex vivo; type: in vivo; conditions: for % Inhibition Monoamine Oxidase-B: 7 days following injection, i.p., combined with DSP4 50 mg/kg; for effect on monoamine oxidase-B activity in the brain or liver: seven days after administration
Description: The compounds were evaluated for ex vivo monoamine oxidase-B-inhibiting activity using the radiochemical procedure of Lyles and Callingham (1982) employing radiolabeled β-phenylethylamine as substrate for monoamine oxidase-B. The compounds of interest were injected intraperitoneally in water. Animals were killed by decapitation and the brains and livers immediately removed and frozen until assay for monoamine oxidase-B activity. Tissues were homogenized and appropriately diluted in buffer prior to incubation. Incubations proceeded at 37° C. for 10 minutes. Incubation was terminated by the addition of acid and the radiolabeled product (phenylacetic acid) was extracted and quantified by liquid scintillation counting procedures. […] The percent inhibition of monoamine oxidase-B activity compared to controls containing no drug was calculated. Reference: Lyles, G. A. and Callingham, B. A. (1982). […] Biochaem. Pharmacol. 31:1417-1424.
Neuroprotectant activity was evaluated by examining the prevention of DSP-4 induced noradrenaline depletion in mouse hippocampus as described previously (Yu et al., 1994). Briefly, mice were injected (i.p.) with either water or potential neuroprotectants (10 mg/kg in water). One hour later they were injected with either water or DSP-4 (50 mg/kg in water). One week later the mice were killed and the brains removed and the hippocampus dissected out. The hippocampus was frozen and saved for estimation of noradrenaline and other amine neurotransmitters and their metabolites (Sloley and Goldberg, 1991). The rest of the brain and the liver were frozen and retained for estimation of monoamine oxidase activities ex vivo as described earlier. […] 63:1820-1828. Sloley, B. D. and Goldberg J. I. (1991), Determination of y-glutamyl conjugates of monoamines by means of high-performance liquid chromatography with electrochemical detection and application to gastropod tissues, J. Chromatog. 567:49-56.

[3] = system: DSP-4 induced noradrenaline depletion in mouse hippocampus; experiment: Prevention of DSP-4 neurotoxicity ex vivo (noradrenaline depletion); type: in vivo; conditions: 10 mg/kg i.p.; for % NA Restoration: then DSP-4 50 mg/kg one hour later, one week
Description: Neuroprotectant activity was evaluated by examining the prevention of DSP-4 induced noradrenaline depletion in mouse hippocampus as described previously (Yu et al., 1994). Briefly, mice were injected (i.p.) with either water or potential neuroprotectants (10 mg/kg in water). One hour later they were injected with either water or DSP-4 (50 mg/kg in water). One week later the mice were killed and the brains removed and the hippocampus dissected out. The hippocampus was frozen and saved for estimation of noradrenaline and other amine neurotransmitters and their metabolites (Sloley and Goldberg, 1991). The rest of the brain and the liver were frozen and retained for estimation of monoamine oxidase activities ex vivo as described earlier. […] References: Yu, P. H., Davis, B. A., Fang, J. and Boulton, A. A. (1994), Neuroprotective effect of some monoamine oxidase-B inhibitors against DSP-4 induced noradrenaline depletion in the mouse hippocampus, J. Neurochem. 63:1820-1828. Sloley, B. D. and Goldberg J. I. (1991), Determination of y-glutamyl conjugates of monoamines by means of high-performance liquid chromatography with electrochemical detection and application to gastropod tissues, J. Chromatog. 567:49-56.

[4] = system: noradrenaline uptake into rat hippocampal prisms; experiment: Inhibition of noradrenaline uptake in vitro; type: cell-based; parameters: dose or concentration left out as unconfirmed
Description: The ability of N-propargylphetermine and related derivatives to inhibit monoamine uptake was evaluated in vitro by examining the effects of said compounds on the uptake of radiolabeled noradrenaline and serotonin into fresh rat hippocampal and striatal prisms, respectively according to the method described in Martin et al., (1978). Animals were killed by decapitation and the hippocampus or striatum were removed and placed in ice cold incubation medium. Prisms were prepared using a tissue chopper, resuspended in 800 volumes of incubation medium containing 12.5 μM nialamide to inhibit amine metabolism and stored on ice until used. 0.8 ml of ice cold prism of suspension per test tube was used. Each test tube was pre-incubated for 5 minutes at 37° C. At this time each test tube was placed on ice and the appropriate drug solution or control was added. This was rapidly followed by the addition of the radiolabled amine (titrated noradrenaline or serotonin, 0.01 μM, specific activity about 13.5 Ci/mmol). The mixture was incubated for 10 minutes at 37° C. The incubations were then filtered and washed using a cell harvester and the radioactivity retained on the filters was measured using a scintillation counter. The percent inhibition of amine uptake compared to controls containing no drug was calculated. Reference: Maretin I. L., Baker G. B. and Mitchell, P. R. (1978). The effect of viloxaine hydrochloride on the transport of noradenaline, dopamine, 5-hydroxytryptamine and gamma-amino-butyric acid in rat brain tissue. Neuropharmacology 17:421-423.

[5] = system: rat brain and liver monoamine oxidase-A; experiment: Monoamine oxidase-A-inhibiting activity ex vivo; type: in vivo; conditions: for % Inhibition Monoamine Oxidase-A: 7 days following injection, i.p., 10 mg/kg combined with DSP4 50 mg/kg; for effect on monoamine oxidase-A activity in the brain or liver: seven days after administration
[6] = target: T1, rat brain monoamine oxidase-B (Rattus norvegicus, UniProt P19643); experiment: Monoamine oxidase-B-inhibiting activity in vitro (radiochemical, β-phenylethylamine substrate); type: biochemical
T1 construct: incubated in appropriately diluted homogenates of rat brain or liver; from tissue; host or cells: rat brain or liver homogenate
T1 sequence (P19643 1-520): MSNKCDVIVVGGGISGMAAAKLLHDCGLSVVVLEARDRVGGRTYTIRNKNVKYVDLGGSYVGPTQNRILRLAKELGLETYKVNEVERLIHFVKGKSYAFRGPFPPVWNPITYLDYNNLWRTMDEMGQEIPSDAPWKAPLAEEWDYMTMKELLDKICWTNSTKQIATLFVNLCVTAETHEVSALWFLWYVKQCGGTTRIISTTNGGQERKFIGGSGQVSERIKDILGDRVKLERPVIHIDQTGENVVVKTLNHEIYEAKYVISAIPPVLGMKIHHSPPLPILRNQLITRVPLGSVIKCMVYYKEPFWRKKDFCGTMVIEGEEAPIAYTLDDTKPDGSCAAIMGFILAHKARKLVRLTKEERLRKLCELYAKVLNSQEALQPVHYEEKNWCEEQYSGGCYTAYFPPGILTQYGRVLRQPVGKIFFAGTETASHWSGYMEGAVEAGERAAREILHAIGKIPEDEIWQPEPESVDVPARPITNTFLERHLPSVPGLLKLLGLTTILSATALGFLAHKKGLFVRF
Description: The compounds were evaluated for in vitro monoamine oxidase-B inhibiting activity using the radiochemical procedure of Lyles and Callingham (1982) employing radiolabeled β-phenylethylamine as substrate for monoamine oxidase-B. Various concentrations of the compounds of interest were incubated in appropriately diluted homogenates of rat brain or liver in a 0.2 M potassium phosphate buffer. Incubations proceeded at 37° C. for 10 minutes. Incubation was terminated by the addition of hydrochloric acid and the radiolabeled product (phenylacetic acid) was extracted and quantified by liquid scintillation counting procedures. […] The percent inhibition of monoamine oxidase-B activity compared to controls containing no drug was calculated. Reference: Lyles, G. A. and Callingham, B. A. (1982). In vitro and in vivo inhibition by benserazide of clorgyline-resistant amine exodiases in rat cardiovascular tissues. Biochem. Pharmacol, 31:1417-1424.

[7] = target: T2, rat brain monoamine oxidase-A (Rattus norvegicus, UniProt P21396); experiment: Monoamine oxidase-A-inhibiting activity in vitro (radiochemical, 5-hydroxytryptamine substrate); type: biochemical
T2 construct: incubated in appropriately diluted homogenates of rat brain or liver; from tissue; host or cells: rat brain or liver homogenate
T2 sequence (P21396 1-526): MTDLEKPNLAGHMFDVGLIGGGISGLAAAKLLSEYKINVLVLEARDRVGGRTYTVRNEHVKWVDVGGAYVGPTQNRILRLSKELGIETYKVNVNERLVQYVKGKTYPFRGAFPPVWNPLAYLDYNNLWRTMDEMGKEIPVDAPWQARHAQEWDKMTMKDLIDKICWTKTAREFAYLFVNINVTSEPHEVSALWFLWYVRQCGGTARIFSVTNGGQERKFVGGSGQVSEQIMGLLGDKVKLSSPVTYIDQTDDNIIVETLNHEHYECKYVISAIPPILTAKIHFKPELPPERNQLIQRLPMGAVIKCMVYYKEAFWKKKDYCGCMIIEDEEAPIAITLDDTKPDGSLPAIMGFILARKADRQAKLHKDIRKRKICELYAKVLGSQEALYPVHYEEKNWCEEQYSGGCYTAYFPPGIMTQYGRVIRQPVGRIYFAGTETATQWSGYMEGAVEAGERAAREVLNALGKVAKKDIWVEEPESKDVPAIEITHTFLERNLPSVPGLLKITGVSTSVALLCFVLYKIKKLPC
Description: The compounds were evaluated for in vitro monoamine oxidase-A-inhibiting activity using the radiochemical procedure of Lyles and Callingham (1982) employing radiolabeled 5-hydroxytryptamine as substrate for monoamine oxidase-A. Various concentrations of the compounds of interest were incubated in appropriately diluted homogenates of rat brain or liver in a 0.2 M potassium phosphate buffer. Incubations proceeded at 37° C. for 10 minutes. Incubation was terminated by the addition of acid and the radiolabeled product (5-hydroxyindoleacetic acid) was extracted and quantified by liquid scintillation counting procedures. […] The percent inhibition of monoamine oxidase-A activity compared to controls containing no drug was calculated.

C#CCNC(C)(C)Cc1ccccc1 [CVT-PP019, N-propargylphentermine]
% inhibition 5-HT uptake [1]: 68 ± 2%
% Inhibition Monoamine Oxidase-B ([2]; brain): −9.4 ± 3.0%
% Inhibition Monoamine Oxidase-B ([2]; liver): −10.1 ± 6.6%
effect on monoamine oxidase-B activity in the brain or liver [2]: did not significantly affect
protection against DSP-4-induced noradrenaline depletion [3]: significantly protected
% NA Restoration ([3]; Table 5 experiment): 114.6%
% inhibition NA uptake [4]: 77 ± 3%
% Inhibition Monoamine Oxidase-A ([5]; brain): −16.4 ± 4.9%
% Inhibition Monoamine Oxidase-A ([5]; liver): −20.1 ± 4.4%
effect on monoamine oxidase-A activity in the brain or liver [5]: did not significantly affect
IC50 [6]: 5.7 µM
IC50 [7]: 53 µM

C#CCNC(C)(C)Cc1ccc(Cl)cc1 [CVT-PP022, p-chloro-N-propargylphentermine]
% inhibition 5-HT uptake [1]: 89 ± 1%
% Inhibition Monoamine Oxidase-B ([2]; brain): 17.5 ± 5.6%
% Inhibition Monoamine Oxidase-B ([2]; liver): 12.6 ± 5.3%
effect on monoamine oxidase-B activity in the brain or liver [2]: did not significantly affect
protection against DSP-4-induced noradrenaline depletion [3]: significantly protected
% NA Restoration ([3]; Table 6 experiment): 70.5%
% inhibition NA uptake [4]: 93 ± 2%
% Inhibition Monoamine Oxidase-A ([5]; brain): 2.5 ± 5.2%
% Inhibition Monoamine Oxidase-A ([5]; liver): 5.9 ± 4.1%
effect on monoamine oxidase-A activity in the brain or liver [5]: did not significantly affect
IC50 [6]: 4 µM
IC50 [7]: 160 µM

CNCCCN1c2ccccc2CCc2ccccc21 [Desipramine, reference compound]
% inhibition NA uptake [4]: 99 ± 3%

NNCCc1ccccc1 [phenelzine.H2SO4, phenelzine, reference compound]
IC50 [6]: 26 µM
IC50 ([7]; in vitro, rat brain homogenate, read-out: IC50 for inhibition of monoamine oxidase A): 130 µM

(−)-deprenyl [reference compound]
% NA Restoration ([3]; Table 5 experiment): 97.2%
% NA Restoration ([3]; Table 6 experiment): 90.3%
